# From US20210255193A1, “LYSINE REACTIVE PROBES AND USES THEREOF” (The Scripps Research Institute, priority 2017, published 2021)
# How the values were obtained:
# [1] = biological target: T1, NONO Non-POU domain-containing octamer-binding protein (Homo sapiens, UniProt Q15233); test: competitive isoTOP-ABPP; settings: for R value (DMSO/fragment) for probe 1 labeling: Q15233_K467; for R value (DMSO/fragment) for probe 1 labeling / isoTOP-ABPP reactivity ratio at lysine Q15233_K467 / isoTOP-ABPP ratio (R) at liganded lysine Q15233_K467: 50 uM, in vitro; for R value (DMSO/fragment) for probe 1 labeling / isoTOP-ABPP reactivity ratio at lysine Q15233_K467: 231 sol; for isoTOP-ABPP ratio (R) at liganded lysine Q15233_K467: sol, 231
# T1 construct: isoTOP-ABPP experiments performed in cell lysates (in vitro); endogenous in cells; host or cells: soluble proteome of human cancer cell lines (MDA-MB-231; Ramos and Jurkat also prepared)
# T1 sequence (Q15233 1-471): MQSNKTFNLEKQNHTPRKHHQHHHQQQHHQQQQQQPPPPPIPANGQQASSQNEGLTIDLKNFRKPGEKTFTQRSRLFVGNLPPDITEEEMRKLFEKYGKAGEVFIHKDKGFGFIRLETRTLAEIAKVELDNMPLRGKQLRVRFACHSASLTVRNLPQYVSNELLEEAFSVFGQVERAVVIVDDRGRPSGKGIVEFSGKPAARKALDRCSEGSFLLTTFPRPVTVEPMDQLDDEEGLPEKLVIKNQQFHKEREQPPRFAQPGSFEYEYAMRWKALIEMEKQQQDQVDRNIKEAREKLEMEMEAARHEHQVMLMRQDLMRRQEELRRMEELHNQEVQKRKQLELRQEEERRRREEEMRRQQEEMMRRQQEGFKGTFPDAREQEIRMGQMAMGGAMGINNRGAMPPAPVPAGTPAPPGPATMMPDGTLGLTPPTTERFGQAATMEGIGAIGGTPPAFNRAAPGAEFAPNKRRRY
# Protocol: In vitro covalent fragment treatment for isoTOP-ABPP. All compounds were made up as solutions in DMSO (100×) and were used at a final concentration of 50 μM for activated esters and 100 μM for guanidinylating agents. For each profiling sample, 0.5 ml of lysate was treated with 5 μl of the 100× compound stock solution or 5 μl of DMSO. Samples were treated with activated esters for
# STP-alkyne labeling and click chemistry. For concentration-dependent reactivity measurements by isoTOP-ABPP, 0.5 ml proteome aliquots were treated at ambient temperature with 1 mM STP-alkyne 1 (5 μl of 100 mM stock in DMSO) and 0.1 mM STP alkyne 1 (5 μl of 10 mM stock in DMSO), respectively. For competitive isoTOP-ABPP, after in vitro fragment treatment (detailed above), the samples were labeled for 1 h at ambient temperature with 0.1 mM STP-alkyne 1 (5 μl of 10 mM stock in DMSO). Samples were conjugated by copper-mediated azide-alkyne cycloaddition (CuAAC) to either the light (1 mM STP-alkyne or fragment treated) or heavy (0.1 mM STP-alkyne or DMSO treated) TEV tags (10 μl of 5 mM stocks in DMSO, final concentration=100 μM) using tris(2-carboxyethyl)phosphine hydrochloride
# R value calculation and processing. The ratios of light and heavy MS1 peaks for each unique peptide were quantified with a CIMAGE software using default parameters (3 MS1 acquisitions per peak and signal to noise threshold set to 2.5). For reactivity measurements by isoTOP-ABPP, the R value was calculated from the ratio of MS1 peak areas, comparing the 1 mM STP alkyne sample (light TEV tag) with the 0.1 mM STP alkyne sample (heavy TEV tag). For competitive isoTOP-ABPP, the R value was calculated from the ratio of MS1 peak areas, comparing the DMSO treated sample (heavy TEV tag) with the compound treated sample (light TEV tag). […] Ratios for unique peptide entries are calculated for each experiment; overlapping peptides with the same modified lysine (for example, different charge states, MudPIT chromatographic steps or tryptic termini) are grouped together and the median ratio is reported as the final ratio (R). The peptide ratios reported by CIMAGE were further filtered to ensure the removal or correction of low-quality ratios in each individual data set. The quality filters applied were the following: removal of half tryptic peptides; for ratios with high standard deviations from the median (90% of the median or above) the lowest ratio was taken instead of the median; removal of peptides with R=20 and only a single MS2 event triggered during the elution of the parent ion; manual annotation of all the peptides with ratios of 20, removing any peptides with low quality elution profiles that remained after the previous curation steps (only done for competitive isoTOP-ABPP).
# Cross-data processing for fragment screening. For compound treated samples, biological replicates of the same condition were averaged, if the standard deviation was below 60% of the mean; otherwise, for lysines with at least one R value <4 for a particular compound, the lowest value of the ratio set was taken. For lysines, where all R values for a particular compound were ≥4, the average was reported. For peptides containing several possible modified lysines, the lysine with the highest number of quantification events was used for analysis and the remaining, redundant peptides were reported as alternative modification sites. Peptides included in the aggregate dataset (those used for further bioinformatics and statistical analyses) were required to have been quantified in 2 experiments for competitive isoTOP-ABPP. Lysines were categorized as liganded, if they had at least one ratio R≥4 (hit fragments). For liganded lysines with R=20 for all liganding events, lysines were required to have been quantified with R=20 in two separate experiments and were further required to have been quantified with R<20 in one additional experiment.
# TTR = biological target: T2, TTR (Homo sapiens, UniProt P02766); test: direct labeling of recombinantly expressed proteins by gel-based ABPP (WT vs lysine mutant); type: binding; settings: TTR K35, KA mutant; 1 μM TTR in MDA-MB-231 lysate
# T2 construct: made in house; host or cells: E. coli
# Text: Subcloning and mutagenesis. Unless noted below, genes were amplified from cDNA prepared from low passage HEK 293T cells using the Ribozol RNA extraction reagent (Amresco) and the iScript Reverse Transcription Supermix kit (Bio-Rad). For the following proteins cDNA clones were used for amplification instead: PFKP (5180268, Dharmacon), HK1 (BC008730, transomic), SIN3A (BC137098, transomic), G6PD (BC000337, transomic) and TGIF1 (BC031268, transomic). Mouse CARM1 in pFLAG-CMV-6c was a kind gift from the Mowen lab (TSRI). NUDT2 was obtained as synthesized gene (IDT). DNA was amplified with custom forward and reverse primers using phusion polymerase (NEB, M0530S), digested with the indicated restriction enzyme and ligated into pFLAG-CMV-6c or pRK5 with the appropriate affinity tag. Lysine mutants were generated using QuikChange site-directed mutagenesis using Phusion® High-Fidelity DNA Polymerase and primers containing the desired mutations and their respective complements. The cloning of TTR and its K35A mutant has been described in Choi et al., “Chemoselective small molecules that covalently modify one lysine in a non-enzyme protein in plasma,” Nat. Chem. Biol. 6, 133-139 (2010). TTR was expressed in E. coli and purified as described. For gel-based experiments 1 μM TTR was added into 1 mg ml^−1 soluble MDA-MB-231 lysate.
# Direct labeling of recombinantly expressed proteins by gel-based ABPP. 50 μL of soluble HEK 293T proteome (1 mg ml^−1) expressing the respective protein (WT or KR mutant) or transfected with an empty vector were treated with 10 μM of the indicated probe for 1 h at room temperature. The samples were analyzed as described in the previous section. For quantification of relative labeling of the different protein variants, the intensity of labeling was determined by quantifying the integrated optical intensity of the bands using ImageLab 5.2.1 software (BioRad).
structure (smiles),measurement,setting,value
"O=C(Oc1c(F)c(F)c(F)c(F)c1F)C(c1ccccc1)c1ccccc1 [fragment 20, Pentafluorophenyl 2,2-diphenylacetate]",R value (DMSO/fragment) for probe 1 labeling,[1],1.2
"O=C(Oc1c(F)c(F)c(F)c(F)c1F)c1cc(C(F)(F)F)cc(C(F)(F)F)c1 [fragment 21, Pentafluorophenyl 3,5-bis(trifluoromethyl)benzoate]",R value (DMSO/fragment) for probe 1 labeling,[1],1.5
"O=C(Oc1c(F)c(F)c(F)c(F)c1F)C1CCN(C(=O)OCc2ccccc2)CC1 [fragment 24, 1-Benzyl 4-(pentafluorophenyl) piperidine-1,4-dicarboxylate]",isoTOP-ABPP reactivity ratio at lysine Q15233_K467,[1],1.0
"O=C(Oc1ccc([N+](=O)[O-])cc1[N+](=O)[O-])c1cc(C(F)(F)F)cc(C(F)(F)F)c1 [fragment 31, 2,4-Dinitrophenyl 3,5-bis(trifluoromethyl)benzoate]",isoTOP-ABPP reactivity ratio at lysine Q15233_K467,[1],1.3
"Cn1cc(CC(=O)Oc2ccc([N+](=O)[O-])cc2[N+](=O)[O-])c2ccccc21 [fragment 32, 2,4-Dinitrophenyl 2-(1-methyl-1H-indol-3-yl)acetate]",isoTOP-ABPP reactivity ratio at lysine Q15233_K467,[1],1.2
"COc1cc(CCC(=O)Oc2ccc([N+](=O)[O-])cc2[N+](=O)[O-])cc(OC)c1OC [fragment 33, 2,4-Dinitrophenyl 3-(3,4,5-trimethoxyphenyl)propanoate]",isoTOP-ABPP reactivity ratio at lysine Q15233_K467,[1],3.7
"O=C(Oc1ccc([N+](=O)[O-])cc1[N+](=O)[O-])c1ccc(-c2ccccc2)cc1 [fragment 37, 2,4-Dinitrophenyl [1,1′-biphenyl]-4-carboxylate]",isoTOP-ABPP ratio (R) at liganded lysine Q15233_K467,[1],0.8
"O=C(Oc1ccc([N+](=O)[O-])cc1[N+](=O)[O-])c1ccccc1Nc1cccc(C(F)(F)F)c1 [fragment 40, 2,4-Dinitrophenyl 2-((3-(trifluoromethyl)phenyl)amino)benzoate]",isoTOP-ABPP ratio (R) at liganded lysine Q15233_K467,[1],4.1
"O=C(Oc1ccc([N+](=O)[O-])cc1[N+](=O)[O-])C(c1ccccc1)(c1ccccc1)c1ccccc1 [fragment 42, 2,4-Dinitrophenyl 2,2,2-triphenylacetate]",isoTOP-ABPP ratio (R) at liganded lysine Q15233_K467,[1],2.5
"CC(=O)Oc1ccc([N+](=O)[O-])cc1[N+](=O)[O-] [fragment 43, 2,4-Dinitrophenyl acetate]",isoTOP-ABPP ratio (R) at liganded lysine Q15233_K467,[1],3.1
"N#Cc1ccc(C(=O)Oc2ccc([N+](=O)[O-])cc2[N+](=O)[O-])cc1 [fragment 44, 2,4-Dinitrophenyl 4-cyanobenzoate]","isoTOP-ABPP ratio, lysine Q15233_K467",[1]; 50 uM_231_sol_in vitro,0.9
"O=C(ON1C(=O)CCC1=O)c1cc(C(F)(F)F)cc(C(F)(F)F)c1 [fragment 46, 3,5-Bis(trifluoromethyl)benzoic acid NHS ester]","isoTOP-ABPP ratio, lysine Q15233_K467",[1]; 50 uM_231_sol_in vitro,0.4
"COC(=O)NC(=NC(=O)OCC1c2ccccc2-c2ccccc21)n1cccn1 [fragment 49, N-Methoxycarbonyl-N′-9-fluorenylmethoxycarbonyl-pyrazole-1-carboxamidine]","isoTOP-ABPP ratio, lysine Q15233_K467",[1]; 100 uM_231_sol_in vitro,4.9
"C#CCCC(=O)Oc1c(F)c(F)c(S(=O)(=O)[O-])c(F)c1F.[Na+] [probe 1, reference compound]",labeling of WT vs mutant protein by probe,TTR,HD (the WT labeled more than the mutant (>4x difference quantified))
"C#CCCC(=O)Oc1c(F)c(F)c(F)c(F)c1F [probe 6, Pentafluorophenyl 4-pentynoate]",labeling of WT vs mutant protein by probe,TTR,HD (the WT labeled more than the mutant (>4x difference quantified))
"C#Cc1ccc(C(=O)Oc2ccccc2[N+](=O)[O-])cc1 [probe 10, 2-Nitrophenyl 4-ethynylbenzoate]",labeling of WT vs mutant protein by probe,TTR,HD (the WT labeled more than the mutant (>4x difference quantified))
"C#Cc1ccc(C(=O)Oc2c(F)c(F)cc(F)c2F)cc1 [probe 12, 2,3,5,6-Tetrafluorophenyl 4-ethynylbenzoate]",labeling of WT vs mutant protein by probe,TTR,HD (the WT labeled more than the mutant (>4x difference quantified))
"C#Cc1ccc(C(=O)Oc2c(F)c(F)c(F)c(F)c2F)cc1 [probe 13, Pentafluorophenyl 4-ethynylbenzoate]",labeling of WT vs mutant protein by probe,TTR,HD (the WT labeled more than the mutant (>4x difference quantified))
"Cc1cc(C)n2c1C=C1C=CC(CCC(=O)Oc3c(F)c(F)c(S(=O)(=O)[O-])c(F)c3F)=[N+]1[B-]2(F)F.[Na+] [probe 18, reference compound]",labeling of WT vs mutant protein by probe,TTR,HD (the WT labeled more than the mutant (>4x difference quantified))
